Reference: BigSolDB 2.1

O=C(O)c1cc(=O)[nH]c(=O)[nH]1 showed a solubility (mole fraction) (in DMF, 278.15 K) of 0.00242, a solubility (mole fraction) (in DMF, 283.15 K) of 0.00305 and a solubility (mole fraction) (in DMF, 288.15 K) of 0.00382. The solubility (mole fraction) (in DMF, 293.15 K) was 0.00473, the solubility (mole fraction) (in DMF, 298.15 K) was 0.00578 and the solubility (mole fraction) (in DMF, 303.15 K) was 0.0071. It also gave a solubility (mole fraction) (in DMF, 308.15 K) of 0.00861, a solubility (mole fraction) (in DMF, 313.15 K) of 0.0108 and a solubility (mole fraction) (in DMF, 318.15 K) of 0.0132. It also gave a solubility (mole fraction) (in DMF, 323.15 K) of 0.0157, a solubility (mole fraction) (in DMSO, 293.15 K) of 0.0326 and a solubility (mole fraction) (in DMSO, 298.15 K) of 0.0394. For the same molecule, the solubility (mole fraction) (in DMSO, 303.15 K) was 0.0472, the solubility (mole fraction) (in DMSO, 308.15 K) was 0.0563 and the solubility (mole fraction) (in DMSO, 313.15 K) was 0.0665. For the same molecule, the solubility (mole fraction) (in DMSO, 318.15 K) was 0.0781, the solubility (mole fraction) (in DMSO, 323.15 K) was 0.0911 and the solubility (mole fraction) (in THF, 278.15 K) was 7.26e-05. It also gave a solubility (mole fraction) (in THF, 283.15 K) of 8.12e-05, a solubility (mole fraction) (in THF, 288.15 K) of 9.02e-05 and a solubility (mole fraction) (in THF, 293.15 K) of 0.0001. The solubility (mole fraction) (in THF, 298.15 K) was 0.000112, the solubility (mole fraction) (in THF, 303.15 K) was 0.000125 and the solubility (mole fraction) (in THF, 308.15 K) was 0.000138. For the same molecule, the solubility (mole fraction) (in THF, 313.15 K) was 0.000151, the solubility (mole fraction) (in THF, 318.15 K) was 0.000167 and the solubility (mole fraction) (in THF, 323.15 K) was 0.000185. For the same molecule, the solubility (mole fraction) (in acetone, 278.15 K) was 9.3e-06, the solubility (mole fraction) (in acetone, 283.15 K) was 1.06e-05 and the solubility (mole fraction) (in acetone, 288.15 K) was 1.22e-05. It also gave a solubility (mole fraction) (in acetone, 293.15 K) of 1.37e-05, a solubility (mole fraction) (in acetone, 298.15 K) of 1.56e-05 and a solubility (mole fraction) (in acetone, 303.15 K) of 1.76e-05. It also gave a solubility (mole fraction) (in acetone, 308.15 K) of 1.95e-05, a solubility (mole fraction) (in acetone, 313.15 K) of 2.21e-05 and a solubility (mole fraction) (in acetone, 318.15 K) of 2.49e-05. The solubility (mole fraction) (in acetone, 323.15 K) was 2.78e-05, the solubility (mole fraction) (in ethanol, 278.15 K) was 1.71e-05 and the solubility (mole fraction) (in ethanol, 283.15 K) was 1.9e-05. It also gave a solubility (mole fraction) (in ethanol, 288.15 K) of 2.09e-05, a solubility (mole fraction) (in ethanol, 293.15 K) of 2.32e-05 and a solubility (mole fraction) (in ethanol, 298.15 K) of 2.57e-05. The solubility (mole fraction) (in ethanol, 303.15 K) was 2.86e-05, the solubility (mole fraction) (in ethanol, 308.15 K) was 3.17e-05 and the solubility (mole fraction) (in ethanol, 313.15 K) was 3.48e-05. It also gave a solubility (mole fraction) (in ethanol, 318.15 K) of 3.88e-05, a solubility (mole fraction) (in ethanol, 323.15 K) of 4.32e-05 and a solubility (mole fraction) (in ethyl acetate, 278.15 K) of 1.1e-06. It also gave a solubility (mole fraction) (in ethyl acetate, 283.15 K) of 1.2e-06, a solubility (mole fraction) (in ethyl acetate, 288.15 K) of 1.2e-06 and a solubility (mole fraction) (in ethyl acetate, 293.15 K) of 1.3e-06. The solubility (mole fraction) (in ethyl acetate, 298.15 K) was 1.4e-06, the solubility (mole fraction) (in ethyl acetate, 303.15 K) was 1.5e-06 and the solubility (mole fraction) (in ethyl acetate, 308.15 K) was 1.6e-06. It also gave a solubility (mole fraction) (in ethyl acetate, 313.15 K) of 1.8e-06, a solubility (mole fraction) (in ethyl acetate, 318.15 K) of 1.9e-06 and a solubility (mole fraction) (in ethyl acetate, 323.15 K) of 2e-06. It also gave a solubility (mole fraction) (in isopropanol, 278.15 K) of 1e-05, a solubility (mole fraction) (in isopropanol, 283.15 K) of 1.32e-05 and a solubility (mole fraction) (in isopropanol, 288.15 K) of 1.72e-05. For the same molecule, the solubility (mole fraction) (in isopropanol, 293.15 K) was 2.12e-05, the solubility (mole fraction) (in isopropanol, 298.15 K) was 2.67e-05 and the solubility (mole fraction) (in isopropanol, 303.15 K) was 3.36e-05. For the same molecule, the solubility (mole fraction) (in isopropanol, 308.15 K) was 4.18e-05, the solubility (mole fraction) (in isopropanol, 313.15 K) was 5.2e-05 and the solubility (mole fraction) (in isopropanol, 318.15 K) was 6.37e-05. The solubility (mole fraction) (in isopropanol, 323.15 K) was 7.71e-05, the solubility (mole fraction) (in methanol, 278.15 K) was 4.44e-05 and the solubility (mole fraction) (in methanol, 283.15 K) was 5.24e-05. It also gave a solubility (mole fraction) (in methanol, 288.15 K) of 6.13e-05, a solubility (mole fraction) (in methanol, 293.15 K) of 7.19e-05 and a solubility (mole fraction) (in methanol, 298.15 K) of 8.42e-05. The solubility (mole fraction) (in methanol, 303.15 K) was 9.82e-05, the solubility (mole fraction) (in methanol, 308.15 K) was 0.000115 and the solubility (mole fraction) (in methanol, 313.15 K) was 0.000135. For the same molecule, the solubility (mole fraction) (in methanol, 318.15 K) was 0.000157, the solubility (mole fraction) (in methanol, 323.15 K) was 0.000184 and the solubility (mole fraction) (in methyl acetate, 278.15 K) was 8.8e-06. For the same molecule, the solubility (mole fraction) (in methyl acetate, 283.15 K) was 9.4e-06, the solubility (mole fraction) (in methyl acetate, 288.15 K) was 1.03e-05 and the solubility (mole fraction) (in methyl acetate, 293.15 K) was 1.15e-05. The solubility (mole fraction) (in methyl acetate, 298.15 K) was 1.21e-05, the solubility (mole fraction) (in methyl acetate, 303.15 K) was 1.31e-05 and the solubility (mole fraction) (in methyl acetate, 308.15 K) was 1.41e-05. For the same molecule, the solubility (mole fraction) (in methyl acetate, 313.15 K) was 1.53e-05, the solubility (mole fraction) (in methyl acetate, 318.15 K) was 1.64e-05 and the solubility (mole fraction) (in methyl acetate, 323.15 K) was 1.76e-05. It also gave a solubility (mole fraction) (in n-butanol, 278.15 K) of 1.47e-05, a solubility (mole fraction) (in n-butanol, 283.15 K) of 1.72e-05 and a solubility (mole fraction) (in n-butanol, 288.15 K) of 2.12e-05. The solubility (mole fraction) (in n-butanol, 293.15 K) was 2.53e-05, the solubility (mole fraction) (in n-butanol, 298.15 K) was 2.97e-05 and the solubility (mole fraction) (in n-butanol, 303.15 K) was 3.5e-05. For the same molecule, the solubility (mole fraction) (in n-butanol, 308.15 K) was 4.06e-05, the solubility (mole fraction) (in n-butanol, 313.15 K) was 4.88e-05 and the solubility (mole fraction) (in n-butanol, 318.15 K) was 5.67e-05. For the same molecule, the solubility (mole fraction) (in n-butanol, 323.15 K) was 6.63e-05, the solubility (mole fraction) (in n-propanol, 278.15 K) was 2.24e-05 and the solubility (mole fraction) (in n-propanol, 283.15 K) was 2.57e-05. It also gave a solubility (mole fraction) (in n-propanol, 288.15 K) of 3e-05, a solubility (mole fraction) (in n-propanol, 293.15 K) of 3.42e-05 and a solubility (mole fraction) (in n-propanol, 298.15 K) of 3.97e-05. It also gave a solubility (mole fraction) (in n-propanol, 303.15 K) of 4.61e-05, a solubility (mole fraction) (in n-propanol, 308.15 K) of 5.31e-05 and a solubility (mole fraction) (in n-propanol, 313.15 K) of 6.09e-05. It also gave a solubility (mole fraction) (in n-propanol, 318.15 K) of 7.17e-05, a solubility (mole fraction) (in n-propanol, 323.15 K) of 8.18e-05 and a solubility (mole fraction) (in water, 278.15 K) of 4.57e-05. For the same molecule, the solubility (mole fraction) (in water, 283.15 K) was 5.22e-05, the solubility (mole fraction) (in water, 288.15 K) was 5.97e-05 and the solubility (mole fraction) (in water, 293.15 K) was 6.68e-05. The solubility (mole fraction) (in water, 298.15 K) was 7.56e-05, the solubility (mole fraction) (in water, 303.15 K) was 8.5e-05 and the solubility (mole fraction) (in water, 308.15 K) was 9.5e-05. It also gave a solubility (mole fraction) (in water, 313.15 K) of 0.000107, a solubility (mole fraction) (in water, 318.15 K) of 0.000121 and a solubility (mole fraction) (in water, 323.15 K) of 0.000136.
